Measured values taken from patent US7459446B2, “Treatment of diabetes with copper binding compounds” (priority 1998, dated 2008).
Read-outs that look alike come from different tables or passages of the source. Marks after values point to notes of the source that are not given here.

Tests used:
fructosamine oxidase [1] = assay: fructosamine oxidase inhibition assay in human sera (ferricytochrome c, g-BSA substrate); type: biochemical
Text: The effectiveness of the inhibitor was expressed not by an equilibrium constant but by a velocity constant (K) which determined the fraction of the enzyme inhibited in a given period of time by a certain concentration of inhibitor.

[2] = test system: streptozocin-diabetic rat (STZ rat); assay: Second preclinical study: intraperitoneal streptozotocin diabetic rat, 6 months; type: in vivo, Wistar rats; design: Mean ± SEM weight gain: unit not given here; conditions: for Mean ± SEM weight gain: beginning to end of the 24 week period; for effect on weight gain (in words): compared with untreated STZ diabetic control rats, 6-month period; for % with cataract / No with cataract: gross cataract formation; for % with cataract / No with cataract / No with severe fibrosis: week 24; for No with severe fibrosis: gross myocardial fibrosis; for mortality rate: rat, in vivo
fructosamine oxidase [3] = assay: fructosamine oxidase inhibition assay in human sera (ferricytochrome c, g-BSA substrate); type: biochemical; conditions: read-out: IC50 (concentration of inhibitor causing 50% inactivation of the enzyme)
[4] = beagle dogs, cited from earlier work
[5] = solutions exposed to light at room temperature, 24 hours; cited from earlier work
[6] = test system: streptozocin-diabetic rat (STZ rat); assay: First preclinical study: intravenous streptozotocin diabetic rat, 8 months; type: in vivo, Wistar rats; conditions: for Survivors at week 32 / mean weight change amongst surviving study animals: rat, in vivo; for Glucose: week 4, mean±SD; for Glucose / HbA1c: 50 mg/L in drinking water; for HbA1c: week 32, mean±SD
[7] = cited from earlier work
[8] = cited from earlier work; for bioavailability: oral administration
[9] = fresh human sera, 0-1,000 μM inhibitor, 0.05 M TES buffer pH 7.4, 37° C., 5 minutes

C[C@@](Cc1ccc(O)c(O)c1)(NN)C(=O)O [carbidopa]
K (velocity/rate constant) (fructosamine oxidase [1]; 1.0 μM inhibitor): 0.1496 min⁻¹ | HbA1c ([2]; Week 4, mean±SD): 9.0 ± 1.0 | HbA1c ([2]; Week 12, mean±SD): 9.6 ± 0.7 | HbA1c ([2]; Week 24, mean±SD): 9.9 ± 1.1 | Mean ± SEM weight gain [2]: 33.7 ± 20.4 | effect on weight gain (in words) [2]: ineffective | % with cataract [2]: 25% | No with cataract [2]: 2 | No with severe fibrosis [2]: 2 | mortality rate [2]: 0% | IC50 (fructosamine oxidase [3]; pH 7.4): 0.5 µM | absolute bioavailability ([4]; oral): 88% | biological half-life [4]: 5 hours | oral absorption [4]: almost complete | oxidative degradation [5]: 50%

N[C@@H](Cc1c[nH]cn1)C(=O)O [histidine]
K (velocity/rate constant) (fructosamine oxidase [1]; 1.0 μM inhibitor): 0.0554 min⁻¹ | IC50 (fructosamine oxidase [3]; [9]): 2.29 µM

NNc1nncc2ccccc12 [hydralazine]
Survivors at week 32 [6]: 6 | mean weight change amongst surviving study animals [6]: −11.0% | Glucose [6]: 35.7 ± 9.5 mmol/L | HbA1c [6]: 8.65 ± 1.18% | bioavailability ([7]; man, oral administration): 26-55% | drug excreted in the urine unchanged ([7]; over 24 hours after oral administration): 2.0-3.6%

NNc1ccccc1 [phenylhydrazine]
K (velocity/rate constant) (fructosamine oxidase [1]): 0.1160 min⁻¹ | IC50 (fructosamine oxidase [3]; pH 7.4): 0.81 µM

CC(=O)N(O)CCCCCNC(=O)CCC(=O)N(O)CCCCCNC(=O)CCC(=O)N(O)CCCCCN [desferrioxamine]
K (velocity/rate constant) (fructosamine oxidase [1]; 10.0 μM inhibitor (*)): 0.0109* min^−1 | IC50 (fructosamine oxidase [3]; pH 7.4): 40.6 µM

CC(=O)N[C@@H](CS)C(=O)O [acetylcysteine]
K (velocity/rate constant) (fructosamine oxidase [1]; 1.0 μM inhibitor): 0.1677 min⁻¹ | Survivors at week 32 [6]: 7 | mean weight change amongst surviving study animals [6]: −8.1% | Glucose [6]: 37.8 ± 5.2 mmol/L | HbA1c [6]: 9.47 ± 1.23% | IC50 (fructosamine oxidase [3]; pH 7.4): 0.83 µM

NCCCC[C@H](N[C@@H](CCc1ccccc1)C(=O)O)C(=O)N1CCC[C@H]1C(=O)O [lisinopril]
K (velocity/rate constant) (fructosamine oxidase [1]; 1.0 μM inhibitor): 0.0174 min⁻¹ | IC50 (fructosamine oxidase [3]; [9]): 217 µM

c1cnc2c(c1)ccc1cccnc12 [o-phenathroline]
K (velocity/rate constant) (fructosamine oxidase [1]; 1.0 μM inhibitor): 0.0385 min⁻¹ | IC50 (fructosamine oxidase [3]; [9]): 4.25 µM

CC(=O)N[C@H](C(=O)O)C(C)(C)S [acetylpenicillamine]
K (velocity/rate constant) (fructosamine oxidase [1]; 1.0 μM inhibitor): 0.0811 min⁻¹ | IC50 (fructosamine oxidase [3]; [9]): 1.06 µM

CCOC(=O)[C@H](CCc1ccccc1)N[C@@H](C)C(=O)N1CCC[C@H]1C(=O)O [enalapril]
K (velocity/rate constant) (fructosamine oxidase [1]; 1.0 μM inhibitor): 0.0326 min⁻¹ | IC50 (fructosamine oxidase [3]; [9]): 3.95 µM

NNC(=O)C(=O)NN [oxalic dyhydrazide]
K (velocity/rate constant) (fructosamine oxidase [1]; 1.0 μM inhibitor): 0.0542 min⁻¹ | IC50 (fructosamine oxidase [3]; [9]): 1.59 µM

C[C@H](CS)C(=O)N1CCC[C@H]1C(=O)O [captopril]
K (velocity/rate constant) (fructosamine oxidase [1]; 1.0 μM inhibitor): 0.0259 min⁻¹ | HbA1c ([2]; Week 4, mean±SD): 8.5 ± 0.9 | HbA1c ([2]; Week 12, mean±SD): 9.2 ± 1.1 | HbA1c ([2]; Week 24, mean±SD): 9.4 ± 01.3 | Mean ± SEM weight gain [2]: 60.7 ± 20.7 | effect on weight gain (in words) [2]: ineffective | % with cataract [2]: 25% | No with cataract [2]: 2 | No with severe fibrosis [2]: 6 | mortality rate [2]: 0% | IC50 (fructosamine oxidase [3]; pH 7.4): 1.78 µM | binding in vivo to albumin and other plasma proteins ([8]; in vivo): almost completely bound | bioavailability [8]: approximately 65%

NNC(N)=O [semicarbazide]
K (velocity/rate constant) (fructosamine oxidase [1]): 0.0276* min^−1 | IC50 (fructosamine oxidase [3]; pH 7.4): 45 µM

N/N=C(\N)NN [diaminoguanidine]
K (velocity/rate constant) (fructosamine oxidase [1]): 0.1340 min⁻¹ | IC50 (fructosamine oxidase [3]; pH 7.4): 0.36 µM

NC(CO)C(=O)NNCc1ccc(O)c(O)c1O (centres unmarked) [benserazide]
K (velocity/rate constant) (fructosamine oxidase [1]; 10.0 μM inhibitor (*)): 0.0095* min^−1 | IC50 (fructosamine oxidase [3]; [9]): 13.6 µM

N=C(N)NN [aminoguanidine]
K (velocity/rate constant) (fructosamine oxidase [1]; 10.0 μM inhibitor (*)): 0.0067* min^−1 | IC50 (fructosamine oxidase [3]; [9]): 231 µM

O=C(O)CN(CCN(CC(=O)O)CC(=O)O)CC(=O)O [EDTA, ethylenediamine tetraacetic acid]
K (velocity/rate constant) (fructosamine oxidase [1]; 10.0 μM inhibitor (*)): 0.0755* min^−1 | Survivors at week 32 [6]: 5 | mean weight change amongst surviving study animals [6]: +1.2% | Glucose [6]: 39.0 ± 6.04 mmol/L | HbA1c [6]: 9.30 ± 0.63% | IC50 (fructosamine oxidase [3]; pH 7.4): 15.7 µM | bioavailability [8]: less than 5%
